Test results reported in patent publication US20190358974A1, “COMPOSITIONS AND PARTICLES CONTAINING CELLULOSIC FIBERS AND STABILIZED- AND/OR ACTIVATED- UREASE INHIBITORS, AS WELL AS METHODS OF MAKING AND USING THE SAME” (INTERNATIONAL PAPER COMPANY, priority 2016, published 2019).

Tests used:
[1] = system: Proteus mirabilis ATCC #7002; assay: Bacterial ammonia test: NH3 in headspace over fluff/SAP pad inoculated with bacteria in synthetic urine; format: cell-based; conditions: 400 ppm PPDA inside cellulosic pulp, stored dry at ambient conditions, 20 weeks
From the text: Test Pad Sample Preparation • 1. Place a non-woven carrier on the 50 mm diameter SCAN pad former screen, attach tube, tare, and place on SCAN test piece former. • 2. Weigh out 0.60 gm fiberized pulp. Fibers should be “fluffy”, well dispersed, and spread evenly in the weighing pan. • 3. Sprinkle 0.40 gm SAP evenly over the fiber. • 4. Start the vacuum and feed the SAP/fiber into the forming cone through the feed tube, ensuring that both materials are simultaneously introduced. • 5. Remove the pad assembly from the former and weigh. Lightly compress the pad and remove the tube. • 6. Lift the non-woven carrier with the pad off of the screen. • 7. Press to ˜3 mm • 8. Seal pad wrapped in non-woven in a plastic ziplok bag until testing.
This is the Test Inoculum Solution.
At the end of the designated exposure period, the ammonia in the headspace of the sealed jar is measured using the Drager system. The sampling end of the Drager tube is fitted with a needle which is inserted through the septum. A vent needle is inserted to allow withdrawal of the gaseous sample. The opposite end of the measuring tube is attached to the Drager pump. Ammonia is withdrawn according to the manufacturer specifications for the tube and the measurement recorded.
The PPDA treated pulp was then shredded by a lab hammermill to convert into fluff fibers. […]

[2] = Aging/degradation of PPDA on dry pulp, PPDA remaining tested by HPLC; format: physicochemical; conditions: 400 ppm PPDA on pulp stored on shelf as dry pulp, ambient conditions
Method: Bleached softwood pulp sheets were treated (sprayed) respectively with: 1) 400 ppm PPDA on pulp from water solution; 2) 400 ppm PPDA on pulp from PEG-200 solution; 3) 400 ppm PPDA on pulp from solution of 90% PEG-200 and 10% Talc powder. All the samples were dried on a dryer can at 195 F. They were then stored under room temperature (23 C) and 50% humidity chamber. The PPDA content remaining in the dry pulp samples was tested by HPLC.
They were then put into a controlled chamber with temperature of 55 C and 50% relative humidity. The PPDA content remaining in the dry pulp samples was tested by HPLC.
Accelerated aging study was done at 35 C and 50% RH with individual sheets thoroughly exposed to the environment. The control PPDA doses were 400 ppm and 1000 ppm based on the weight of the sheet, applied with water solution and dried. And the stabilized PPDA doses were also at 400 ppm and 1000 ppm on sheet, applied with 2% PPDA solution in PEG-200. The results are shown in the table below, and plotted in FIG. 4.
Aging test was also conducted on-shelf in the bag at room conditions. The result was shown in Table 12, and plotted in FIG. 5 in log scale.

[3] = cited from earlier work

Structure (SMILES): NP(N)(=O)Oc1ccccc1 [PPDA, phenylphosphorodiamidate]
- effectiveness against ammonia generation [1]: lost all its effectiveness against ammonia generation
- stability inside cellulosic pulp [2]: not stable
- stability of dry PPDA ([3]; dry): stable
- stability in water ([3]; in water): not stable
